The structures appear in SMILES notation. Bounds are passed on as bounds.

SIK2, sequence (Q9H0K1 whole entry, species assumed): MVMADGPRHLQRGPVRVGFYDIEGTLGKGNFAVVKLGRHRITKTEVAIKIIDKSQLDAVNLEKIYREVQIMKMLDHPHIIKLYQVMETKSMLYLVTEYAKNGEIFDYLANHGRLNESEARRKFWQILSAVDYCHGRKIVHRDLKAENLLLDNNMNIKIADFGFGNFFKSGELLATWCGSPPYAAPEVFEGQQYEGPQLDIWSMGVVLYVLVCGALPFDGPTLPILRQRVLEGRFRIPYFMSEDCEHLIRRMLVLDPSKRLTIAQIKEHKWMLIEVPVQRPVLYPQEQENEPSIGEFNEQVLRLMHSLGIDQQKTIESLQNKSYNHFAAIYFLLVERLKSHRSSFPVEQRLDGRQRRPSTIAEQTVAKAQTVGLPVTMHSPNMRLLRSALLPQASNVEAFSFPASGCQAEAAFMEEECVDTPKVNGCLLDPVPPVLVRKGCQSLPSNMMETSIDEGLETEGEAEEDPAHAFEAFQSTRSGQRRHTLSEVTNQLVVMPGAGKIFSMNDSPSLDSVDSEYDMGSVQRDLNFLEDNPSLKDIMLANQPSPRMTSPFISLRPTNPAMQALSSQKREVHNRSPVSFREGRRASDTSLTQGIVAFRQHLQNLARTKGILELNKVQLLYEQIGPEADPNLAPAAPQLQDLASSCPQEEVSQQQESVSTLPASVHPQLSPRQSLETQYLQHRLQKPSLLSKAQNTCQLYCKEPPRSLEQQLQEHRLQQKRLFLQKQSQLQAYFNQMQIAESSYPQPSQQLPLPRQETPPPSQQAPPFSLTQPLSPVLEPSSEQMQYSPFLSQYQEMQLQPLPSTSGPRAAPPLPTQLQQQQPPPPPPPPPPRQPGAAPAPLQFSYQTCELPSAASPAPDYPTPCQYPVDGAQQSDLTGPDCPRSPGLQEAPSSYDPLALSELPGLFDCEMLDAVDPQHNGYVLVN

One assay addresses SIK2 (Homo sapiens, UniProt Q9H0K1). The experiment in a line: SIK2 Enzymatic Assay High Version 2 (High ATP). The assay is classed as biochemical.
Settings: not given
The gist of the method: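 At room temperature, enzyme (6 nM, 2× final) was preincubated with compound for 30 min, then 6 mM ATP and 400 μM HDAC5tide (both 2× final) were added for 2 h. ADP formed was measured by ADP-Glo Max (2 h reagent, 1 h detection) using luminescence.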
In the case of `CCN1[C@@H]2COC[C@H]1C[C@@H](Oc1cnc(C)cc1-c1ccn3nc(Nc4ccc(C(=O)NC)cn4)cc3c1)C2` [Example 530, 6-[[5-[5-[[(1S,5R)-9-ethyl-3-oxa-9-azabicyclo[3.3.1]nonan-7-yl]oxy]-2-methyl-4-pyridyl]pyrazolo[1,5-a]pyridin-2-yl]amino]-N-methyl-pyridine-3-carboxamide], half-maximal inhibition (IC50) was put at 0.00236 µM. Still for that read-out and setting: to `Cc1cc(-c2ccn3nc(Nc4ccn(C)n4)cc3c2)c(OC[C@H]2CNCCO2)cn1` [Example 429, 5-[2-methyl-5-[[(2R)-morpholin-2-yl]methoxy]-4-pyridyl]-N-(1-methylpyrazol-3-yl)pyrazolo[1,5-a]pyridin-2-amine] belongs 0.0122 µM.

Regarding `Cc1cc(-c2ccn3nc(Nc4ccc(C(=O)O)cn4)cc3c2)c(O[C@H]2C[C@H]3COC[C@@H](C2)N3)cn1` [Example 370, 6-[[5-[2-methyl-5-[[(1S,5R,7s)-3-oxa-9-azabicyclo[3.3.1]nonan-7-yl]oxy]-4-pyridyl]pyrazolo[1,5-a]pyridin-2-yl]amino]pyridine-3-carboxylic Acid], the IC50 is under 0.000847 µM. For `Cc1cc(-c2ccn3nc(Nc4cccnn4)cc3c2)c(O[C@H]2C[C@H]3COC[C@@H](C2)N3C)cn1` [Example 419, 5-[2-methyl-5-[[(1R,5S,7s)-9-methyl-3-oxa-9-azabicyclo[3.3.1]nonan-7-yl]oxy]-4-pyridyl]-N-pyridazin-3-yl-pyrazolo[1,5-a]pyridin-2-amine], the IC50 was under 0.000847 µM.

The same assay, now with this note: enzyme 6 nM, 6 mM ATP and 400 μM HDAC5tide (each 2× final concentration); 30 minutes pre-incubation, 2 hours; ADP-Glo Max luminescence; read-out: SIK2 high ATP IC50 (μM) (Test Example 2).
`Cc1cc(-c2ccn3nc(NC(=O)C4CC4)cc3c2)c(OCC2(C)CCN2C)cn1` (single isomer, unassigned) [Example 450, (*S)—N-[5-[5-[(1,2-dimethylazetidin-2-yl)methoxy]-2-methyl-4-pyridyl]pyrazolo[1,5-a]pyridin-2-yl]cyclopropanecarboxamide]: the IC50 worked out at 0.04 µM. In the case of `Cc1cc(-c2ccn3nc(Nc4ccc5cc[nH]c5n4)cc3c2)c(OCC(C)(C)O)cn1` [Example 240, 2-methyl-1-[[6-methyl-4-[2-(1H-pyrrolo[2,3-b]pyridin-6-ylamino)pyrazolo[1,5-a]pyridin-5-yl]-3-pyridyl]oxy]propan-2-ol], the half-maximal inhibitory concentration (IC50) turned out to be 0.016 µM. On to `Cc1cc(Nc2cc3cc(-c4cc(OCCF)ncc4OCC(C)(C)C#N)ccn3n2)nc(C)n1` [Example 673, 3-[[4-[2-[(2,6-dimethylpyrimidin-4-yl)amino]pyrazolo[1,5-a]pyridin-5-yl]-6-(2-fluoroethoxy)-3-pyridyl]oxy]-2,2-dimethyl-propanenitrile], for which the IC50 worked out at 0.00229 µM. On to `CCn1nc(Nc2cc3cc(-c4cc(C)ncc4OCC(C)(C)O)ccn3n2)cc(C)c1=O` [Example 247, 2-ethyl-6-[[5-[5-(2-hydroxy-2-methyl-propoxy)-2-methyl-4-pyridyl]pyrazolo[1,5-a]pyridin-2-yl]amino]-4-methyl-pyridazin-3-one], for which the concentration for half-maximal inhibition (IC50) amounted to 0.00712 µM. Take `Cc1cc(-c2ccn3nc(NC(=O)C4CC4)cc3c2)c(OC[C@@H](O)C(F)(F)F)cn1` (single isomer, unassigned) [Example 454, (*R)—N-[5-[2-methyl-5-[(2R)-3,3,3-trifluoro-2-hydroxy-propoxy]-4-pyridyl]pyrazolo[1,5-a]pyridin-2-yl]cyclopropanecarboxamide]: the IC50 was 0.0134 µM.

With `Cc1cc(-c2ccn3nc(Nc4cc(C)c(C(=O)NC5CC5)c(C)n4)cc3c2)c(OCC(C)(C)O)cn1` [Example 335, N-cyclopropyl-6-[[5-[5-(2-hydroxy-2-methyl-propoxy)-2-methyl-4-pyridyl]pyrazolo[1,5-a]pyridin-2-yl]amino]-2,4-dimethyl-pyridine-3-carboxamide], the IC50 worked out at 0.0233 µM. Turning to `Cc1cc(-c2ccn3nc(Nc4cc(C)nc(C)n4)cc3c2)c(OCC2(C(N)=O)CC2)cn1` [Example 313, 1-[[4-[2-[(2,6-dimethylpyrimidin-4-yl)amino]pyrazolo[1,5-a]pyridin-5-yl]-6-methyl-3-pyridyl]oxymethyl]cyclopropanecarboxamide], the 50% inhibitory concentration (IC50) amounted to 0.0138 µM. The same measure, in the same setting: to `Cc1cc(-c2ccn3nc(Nc4cc(C)nc(C)n4)cc3c2)c(OCC(C)(C)O)cn1` [Example 200, 1-[[4-[2-[(2,6-dimethylpyrimidin-4-yl)amino]pyrazolo[1,5-a]pyridin-5-yl]-6-methyl-3-pyridyl]oxy]-2-methyl-propan-2-ol] belongs 0.0445 µM; to `COc1cc(Nc2cc3cc(-c4cc(C)ncc4OCC(C)(C)O)ccn3n2)cc(OC)c1` [Example 646, 1-[[4-[2-(3,5-dimethoxyanilino)pyrazolo[1,5-a]pyridin-5-yl]-6-methyl-3-pyridyl]oxy]-2-methyl-propan-2-ol], 0.0313 µM.

In the case of `Cc1cc(C(=O)NCC(C)(C)O)cc(Nc2cc3cc(-c4cc(OC(F)F)ncc4OCC(C)(C)C#N)ccn3n2)n1` [Example 701, 2-[[5-[5-(2-cyano-2-methyl-propoxy)-2-(difluoromethoxy)-4-pyridyl]pyrazolo[1,5-a]pyridin-2-yl]amino]-N-(2-hydroxy-2-methyl-propyl)-6-methyl-pyridine-4-carboxamide], the IC50 was found to be 0.0279 µM. For `CC#Cc1cc(-c2ccn3nc(Nc4ccn(C)n4)cc3c2)c(OCC2(F)CNC2)cn1` [Example 437, 5-[5-[(3-fluoroazetidin-3-yl)methoxy]-2-prop-1-ynyl-4-pyridyl]-N-(1-methylpyrazol-3-yl)pyrazolo[1,5-a]pyridin-2-amine], the IC50 is under 0.000847 µM. Still for that read-out and setting: with `Cc1cc(-c2ccn3nc(Nc4cnc5cc[nH]c5n4)cc3c2)c(O[C@H]2CC[C@H](O)CC2)cn1` [Example 289, 4-[[6-methyl-4-[2-(5H-pyrrolo[2,3-b]pyrazin-3-ylamino)pyrazolo[1,5-a]pyridin-5-yl]-3-pyridyl]oxy]cyclohexanol] the figure was 0.00114 µM; with `Cc1cc(-c2ccn3nc(NC(=O)C4CC4)cc3c2)c(OC[C@](C)(O)C2CC2)cn1` (single isomer, unassigned) [Example 193, (*R)—N-(5-(5-(2-cyclopropyl-2-hydroxypropoxy)-2-methylpyridin-4-yl)pyrazolo[1,5-a]pyridin-2-yl)cyclopropanecarboxamide], 0.0234 µM. As for `Cc1cc(-c2ccn3nc(Nc4ccc(C5CC5)nn4)cc3c2)c(OC[C@]23C[C@H](CO2)N(C)C3)cn1` [Example 235, N-(6-cyclopropylpyridazin-3-yl)-5-[2-methyl-5-[[(1R,4R)-2-methyl-5-oxa-2-azabicyclo[2.2.1]heptan-4-yl]methoxy]-4-pyridyl]pyrazolo[1,5-a]pyridin-2-amine], the concentration for half-maximal inhibition (IC50) stood at 0.0199 µM. For the molecule `Cn1nc(Nc2cc3cc(-c4cc(OCC(F)F)ncc4OCC(C)(C)C#N)ccn3n2)ccc1=O` [Example 697, 3-[[6-(2,2-difluoroethoxy)-4-[2-[(1-methyl-6-oxo-pyridazin-3-yl)amino]pyrazolo[1,5-a]pyridin-5-yl]-3-pyridyl]oxy]-2,2-dimethyl-propanenitrile], the IC50 worked out at 0.021 µM. Same read-out and setting: to `Cc1cc(-c2ccn3nc(Nc4ccc(S(=O)(=O)N(C)C)cc4)cc3c2)c(O[C@H]2CC[C@H](O)CC2)cn1` [Example 324, 4-[[5-[5-(4-hydroxycyclohexoxy)-2-methyl-4-pyridyl]pyrazolo[1,5-a]pyridin-2-yl]amino]-N,N-dimethyl-benzenesulfonamide] belongs 0.0329 µM.

For the origin of these results see patent US20240158392A1 (Janssen Biotech, Inc., priority 2021, published 2024).
